US20070031889A1, “Method for rapidly detecting quinolone-resistant Salmonella ssp. and the probes and primers utilized therein” (Bureau of Food and Drug Analysis, Department of Health, …, priority 2004, published 2007)
Converted amounts (≈) assume the structure as drawn. “And” between values parts separate entries of the source, which are not always exact repeats. Equal entries are not always repeated. Where two headings read alike, the source gives them in different places. {LC640} = LightCycler Red 640 dye label (LCRED640); {FL} = fluorescein label (FL); {P} = phosphate

Tests used:
[1] = test system: Salmonella strains; experiment: Minimum inhibitory concentration (MIC) of quinolone antibacterials by E-test strips; assay type: cell-based, Salmonella spp.; conditions: for MIC: Salmonella
Experimental: The minimum inhibitory concentration was deterrnined by the E-test strips of quinolone antibacterials (AB BIODISC North America Inc., Solna, Sweden). The bacterial strain to be tested was streak plated on xylose lysin desoxycholate agar (XLD) (Merck kGaA, Darmstadt, Germany). After the purity of said strain was verified, the strain was grown on tryptic soy agar (TSA) medium (Merck kGaA, Darrnstadt, Germany) at 35-37° C. for 16-18 hours and then suspended in sterile water. The bacterial concentration was adjusted to 80% of turbidity (corresponding to 0.5 MacFarland turbidity standard, and the bacterial content is approximately […]) using Vitek Special DR 100 Colorimeter (HACH Company, Colorado, USA). Then, 0.1 ml of the bacterial aliquot was placed on the prepared Mueller-Hinton (M-H) agar medium (having the diameter of 9 cm and the thickness of 4.0±0.5 mm) (Merck kGaA, Darmstadt, Germany) and the aliquot was spread evenly on the medium by a sterilized glass rod. The medium plate stood still for 10 to 15 minutes to ensure that the bacterial aliquot completely penetrated into the medium. Thereafter, a sterilized tweezer was used to clip the E region of the E-test antibacterial test strip which was then placed on the inoculated M-H medium plate. Two E-test trips were placed parallel to each other and symmetrically on each medium plate. Said medium plates were then incubated at 35-37° C. for 16-18 hours. The results were determined based on the standards from National Committee for Clinical Laboratory Standard (NCCLS, 2001), USA. Each antibacterial agent was tested in a duplicate experiment, and E. coli ATCC 25922/CCRC 11509 was used as the control of the tested strains in each experiment.

[2] = test system: single-stranded PCR products of Salmonella gyrA gene; experiment: Real-time PCR with melting curve analysis of gyrA4 hybridization probes; assay type: binding, Salmonella spp.
Experimental: (§1) The bacterial strain to be tested was streak plated on XLD medium. After the purity of said strain was verified, the strain was grown in TSB broth at 35±1° C. for 18±2 hours. Following refrigerated centrifugation, Wizard® Genomic DNA Purification Kit was used to extract the genomic DNA. One microliter of the DNA extraction solution was added to the reaction mix (containing 0.5 μM primer set, 0.2 μM probe set, 4 mM MgCl2, and 1×LightCycler DNA Master hybridization mix) to a final volume of 20 μl, which was then placed in LightCycler (Roche Applied Science, Mannheim, Germany) for amplification and melting reaction of the hybrid of the PCR product with the hybridization probes.

[3] = test system: single-stranded PCR products of parC gene; experiment: Real-time PCR with melting curve analysis of parC238 hybridization probes; assay type: binding, Salmonella spp.
Experimental: as §1

[4] = Table 4, gyrA single point mutation strains (52)

Compound: O=C(O)c1cn(C2CC2)c2cc(N3CCNCC3)c(F)cc2c1=O [ciprofloxacin]
- Susceptibility Cp ([1]; Mutant strains (75)): S/R
- Susceptibility ([1]; Table 4, Wild type strains): S
- Susceptibility [1, 4]: S
- Susceptibility Cp ([1]; Wild type strains (45)): S (S, susceptibility, MICs 0.006-0.38 μg/ml)
- Ciprofloxacin susceptibility ([1]; parC mutant (A238C) strains (23)): Resistant
- Ciprofloxacin susceptibility ([1]; parC wild type strains (97)): Sensitive
- Susceptibility ([1]; {}): S

Compound: CCn1cc(C(=O)O)c(=O)c2ccc(C)nc21 [nalidixic acid]
- share of the 120 Salmonella strains tested that were resistant ([1]; 120 strains from animal foods and clinical samples): 62.5%
- MIC ([1]; read-out: MICs, resistant strains (gyrA mutants)): ≥ 256 µg/mL
- MIC ([1]; susceptible strains (wild type), read-out: MICs): 2.5 to 7 µg/mL (≈ 10.8 to 30.1 µM)
- Susceptibility ([1]; Table 4, Wild type strains): S
- Susceptibility [1, 4]: R
- Susceptibility NA ([1]; Wild type strains (45)): S (S, susceptibility, MICs 2.5˜7 μg/ml)
- Susceptibility ([1]; {}): R
- Susceptibility NA ([1]; {}): R (R, resistance, MICs ≧ 256 μg/ml)

Compound: gyrA4: hybridization probe set of gyrA4-FL (SEQ ID NO: 5) and gyrA4-LC640 (SEQ ID NO: 6) (DNA 1 CGATTCCGCAGTGTATGACACC; DNA 2 CGTTCGTATGGCGCAGCCATTCTCG; DNA 1: DNA, 3' {FL}, backbone not given here; DNA 2: DNA, 5' {LC640}, 3' {P}, backbone not given here; listed as Salmonella sp.)
- Tm ± SD (CV %) ([2]; C248A mutant strains): 58.6±0.3 °C and 58.6 ± 0.3 (0.51) ° C.
- Tm ± SD (CV %) ([2]; C248T mutant strains): 59.1±0.2 °C and 59.1 ± 0.2 (0.40) ° C.
- Tm ± SD (CV %) ([2]; G259A mutant strains): 59.8±0.4 °C and 59.8 ± 0.4 (0.60) ° C.
- Tm ± SD (CV %) ([2]; G259T mutant strains): 59.6±0.4 °C and 59.6 ± 0.4 (0.68) ° C.
- Tm ± SD (CV %) ([2]; Wild type strains): 63.6±1.0 °C and 63.6 ± 1.0 (1.62) ° C.
- Tm ± SD (CV %) ([2]; double point mutation C248T/A260G strains): 54.6±0.2 °C and 54.6 ± 0.2 (0.27) ° C.
- Tm ± SD (CV %) ([2]; single point mutation strains (C248A, C248T, G259A, G259T)): 59.2±0.5 °C and 59.2 ± 0.5 (0.89) ° C.

Compound: parC238: hybridization probe set of parC238-FL (SEQ ID NO: 7) and parC238-LC640 (SEQ ID NO: 8) (DNA 1 CGACCGCGCCTGCT; DNA 2 GAAGCCATGGTGCTGATGGCG; DNA 1: DNA, 3' {FL}, backbone not given here; DNA 2: DNA, 5' {LC640}, 3' {P}, backbone not given here; listed as Salmonella sp.)
- Tm ± SD (CV %) ([3]; parC mutant (A238C) strains): 61.4±0.3 °C
- Tm ± SD (CV %) ([3]; parC wild type strains): 47.4±0.5 °C
